Experimental data reported in PubChem BioAssay AID850 (SRMLSC, 2007).
Active and inactive are the calls of the source. The rule behind the calls is not given here.

How the values were obtained:
[1] = yeast lifespan-shortening chemical project counter-assay, dose-response inhibition of growth under permissive conditions (AID 850); settings: Saccharomyces cerevisiae growth inhibition, permissive control, measured here: maximum growth inhibition, stronger effect = higher value;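 note: growth read as optical density after one day of incubation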
[2] = system: Saccharomyces cerevisiae growth inhibition, permissive control; assay: as above

| SMILES | IC50 [2] | inhibition ([1]; at 50 µM) [%] | also measured |
| --- | --- | --- | --- |
| COc1ccc(Br)cc1C1CC(=O)N2CN(C)CSC2=C1C#N (configuration not stated) | > 100 µM (inactive) |  | inhibition ([1]; at 1.563 µM): 17% |
| Cn1c(C(=O)N2CCC(C(=O)N3CCN(Cc4ccc5c(c4)OCO5)CC3)CC2)cc2sccc21 | > 100 µM (inactive) |  | inhibition ([1]; at 12.5 µM): 18% |
| Cc1cccc(C(=O)O/N=C/c2c(N3CCOCC3)n(C)c3ccccc23)c1 | 50.1 µM | 48.1 |  |
| Cc1ccc(/C(N)=N/OC(=O)c2ccc(Cl)cc2Cl)cc1 | 19.8 µM | 98.8 |  |
| Cc1ccc(-n2nnc3c(=O)n(CC(=O)N4CCC(C)CC4)cnc32)cc1 | > 100 µM (inactive) |  | inhibition ([1]; at 25 µM): 17.4% |
| O=[N+]([O-])c1ccc(O)c(/C=N/Nc2ccccn2)c1 | > 100 µM (inactive) |  | inhibition ([1]; at 0.781 µM): 16.1% |
| Nc1ccc(O)c2c1C(=O)c1ccccc1C2=O | > 100 µM (inactive) |  | inhibition ([1]; at 25 µM): 16.4% |
| Cc1sc2ncnc(N/N=C/c3ccccc3O)c2c1C | 32.2 µM | 94.2 |  |
| CCCCN(CCCC)C(=S)N/N=C/c1c(C)[nH]n(-c2ccccc2)c1=O | > 100 µM (inactive) |  | inhibition ([1]; at 0.781 µM): 19.7% |
| c1ccc(-n2c(-c3ccco3)nnc2-c2ccco2)cc1 | > 100 µM (inactive) |  | inhibition ([1]; at 12.5 µM): 22.7% |
| C=CCNC1=C(Cl)C(=O)c2ccccc2C1=O | > 100 µM (inactive) |  | inhibition ([1]; at 25 µM): 18.3% |
| N/C(Cc1ccc(Cl)c(Cl)c1)=N\OC(=O)c1cccs1 | > 100 µM (inactive) |  | inhibition ([1]; at 0.195 µM): 4.64% |
| Cc1ccc(C(C[N+](=O)[O-])n2nc(C)cc2C)cc1 (configuration not stated) | 13 µM | 99.2 |  |
| CC(C)Sc1nc(N)nc(-c2cccs2)c1C#N | > 100 µM (inactive) |  | inhibition ([1]; at 1.563 µM): 14.6% |
| O=C(O)CCC(=O)N1CCN(c2nc(-c3ccccc3Cl)c3cc(Br)ccc3n2)CC1 | 32 µM | 98.3 |  |
| COc1ccccc1OCCN1CSC(=S)N(C)C1 | 17.2 µM | 82.4 |  |
| CCOc1cccc(-c2nnc3n2N=C(c2cc(OC)ccc2OC)CS3)c1 | > 100 µM (inactive) |  | inhibition ([1]; at 6.25 µM): 14.8% |
| Cc1nn(-c2cccc(C(F)(F)F)c2)c(Cl)c1/C=N/Nc1cccc(C(=O)O)c1 | 41.2 µM | 81.6 |  |
| CCOc1cc(N2CCOCC2)c(OCC)cc1NC(=O)COc1cccc2cccnc12 | > 100 µM (inactive) |  | inhibition ([1]; at 0.098 µM): 11.3% |
| O=c1c2sc(-c3ccccc3)cc2nc2n1CCC2 | 14.6 µM | 83.4 |  |
| Cc1nc(Cl)c2oc3ccccc3c2n1 | > 100 µM (inactive) | 15.8 |  |

| SMILES | IC50 [2] | inhibition ([1]; at 50 µM) [%] | also measured |
| --- | --- | --- | --- |
| O=C(OCn1ncc(Br)c(Br)c1=O)c1ccc(F)cc1 | 7.71 µM |  | inhibition ([1]; at 12.5 µM): 78.7% |
| CCCCCCCOC(=O)C[N+](C)(C)CCOC1CC2CCC1(C)C2(C)C (configuration not stated) | 29.2 µM | 99.4 |  |
| CCOC(=O)c1c(/N=C/c2cccc([N+](=O)[O-])c2O)sc(C)c1C | 30.7 µM | 58.5 |  |
| O=C(Nc1nc(-c2ccccn2)cs1)c1ccc(Cl)s1 | 2.09 µM |  | inhibition ([1]; at 12.5 µM): 91.4% |
| Oc1c(Br)cc(Cl)cc1C=Nc1ccccc1Br | 7.27 µM | 100 |  |
| Cc1ccc(C(=O)Oc2ccc(Cl)c3cccnc23)cc1[N+](=O)[O-] | 40.6 µM | 73.3 |  |
| COc1ccccc1OCC(=O)n1cc(C(=O)c2cc(Cl)cc(Cl)c2O)cn1 | 4.72 µM | 100 |  |
| O=C1c2ccccc2NC(c2ccc(-c3ccc(Br)cc3)o2)N1O (configuration not stated) | 18.9 µM | 99 |  |
| O=C(O)c1cc2c(s1)-c1ccccc1OC2 | > 100 µM (inactive) |  | inhibition ([1]; at 0.195 µM): 15.9% |
| Cc1cc(C)nc(N/N=C/C2=C(N3CCOCC3)C(=C\c3ccc(Cl)cc3)/CC2)n1 | > 100 µM (inactive) |  | inhibition ([1]; at 3.125 µM): 5.26% |
| Cc1ccc(C)c(/C=C/C(=O)c2ccccc(=O)c2O)c1 | 6.38 µM |  | inhibition ([1]; at 25 µM): 100% |
| Cc1ccc2nc(-c3ccc(NS(C)(=O)=O)cc3)cc(-c3ccccc3)c2c1 | > 100 µM (inactive) | 22.2 |  |
| CCCC1COC(Cn2cncn2)(c2ccc(Cl)cc2Cl)O1 (configuration not stated) | 0.184 µM |  | inhibition ([1]; at 3.125 µM): 97.3% |
| Cc1cccc(/C=C/C(=O)c2cc(Br)ccc(=O)c2O)c1 | 12.2 µM | 83.2 |  |
| Cc1ccc2c(c1)-c1nc3ccccc3cc1C2=NC1CCCCC1 | > 100 µM (inactive) | 16.8 |  |
| C/C(=N\Nc1ccc([N+](=O)[O-])cc1)c1ccc(N)cc1 | 6.04 µM | 94.4 |  |
| O=C1c2cccc3c(Cl)ccc(c23)C(=O)N1O | 39.6 µM | 61.6 |  |
| CC(C)(C)c1ccc(-c2nc(-c3ccncc3)no2)cc1 | 47 µM | 48.7 |  |
| COC(=O)c1ccc(C(=O)OC)c(NC(=O)CSc2cccc[n+]2[O-])c1 | 1.09 µM |  | inhibition [1]: 100% |
| COc1ccc2cc(C(=O)O)ccc2c1 | 20.5 µM | 72.1 |  |
| COC(=O)Cn1c2ccc(C)cc2c2nc(C)sc21 | > 100 µM (inactive) | 16 |  |

| SMILES | IC50 [2] | inhibition ([1]; at 50 µM) [%] | also measured |
| --- | --- | --- | --- |
| Cc1cccc(C(=O)CC(=O)c2cc(Cl)ccc2O)c1 | 35.8 µM | 52.9 |  |
| CCn1c(Sc2nc(C)nc3scc(-c4cccs4)c23)n[nH]c1=O | 22.9 µM |  | inhibition ([1]; at 25 µM): 55.1% |
| CCC(C)NC(=O)CS(=O)Cc1nc(-c2ccccc2C)oc1C (configuration not stated) | > 100 µM (inactive) |  | inhibition ([1]; at 1.563 µM): 23.5% |
| Cc1nc2c(c(C)c1C#N)C(=O)c1ccccc1-2 | > 100 µM (inactive) | 16 |  |
| Cc1cccc(CSc2cccc3cccnc23)c1 | 13.8 µM | 99.4 |  |
| COc1ccccc1N1CCN(Cc2cc(Br)c(O)c3ncccc23)CC1 | 12.7 µM | 99.6 |  |
| Cc1cccc(N=C2Sc3nc4c(C)c(C)ccc4cc3CN2CCN2CCOCC2)c1 | 45.1 µM | 99 |  |
| Cn1c(-c2ccco2)nc2cc3ccccc3cc21 | 49.4 µM | 52.4 |  |
| Nc1nsc2ccccc12 | 35.8 µM | 63.5 |  |
| COc1ccc(Nc2cnn(-c3nc4ccccc4s3)c(=O)c2Cl)cc1 | 44.2 µM | 60.8 |  |
| O=C(O)CSc1cccc[n+]1[O-] | 28.7 µM | 94.2 |  |
| CCCC(=O)NC(c1cccs1)c1cc([N+](=O)[O-])c2cccnc2c1O (configuration not stated) | 24.1 µM | 96.5 |  |
| Cn1cccc1Cc1nnc(SCC(=O)Nc2nccs2)n1CCc1ccccc1 | > 100 µM (inactive) |  | inhibition ([1]; at 6.25 µM): 29% |
| O=C(c1ccc(C(=O)N2CCCc3ccccc32)s1)N1CCCc2ccccc21 | 34.1 µM | 87 |  |
| Cc1nn2c(-c3ccncc3)nnc2c2ccccc12 | 11.8 µM |  | inhibition ([1]; at 25 µM): 73.2% |
| Cc1cc(Cl)ccc1N=c1ssnc1Cl | > 100 µM (inactive) |  | inhibition ([1]; at 12.5 µM): 14% |
| CC(C)CNC(=O)CN(C1CCCCC1)S(C)(=O)=O | > 100 µM (inactive) |  | inhibition ([1]; at 1.563 µM): 9.04% |
| N#CC(c1cccc(Cl)c1)c1ccc2c(C(F)(F)F)cc(C(F)(F)F)nc2n1 (configuration not stated) | > 100 µM (inactive) | 4.48 |  |
| Oc1cccc2ccc(Nc3ccccn3)nc12 | 12.5 µM | 99.4 |  |
| O=C(Cc1ccccc1)NCCc1cn2ccsc2n1 | > 100 µM (inactive) |  | inhibition ([1]; at 0.391 µM): 26% |
| CCCc1ccc(Oc2c(-c3ccc(O)c(C)c3O)n[nH]c2C)cc1 | 14.8 µM | 93.6 |  |

| SMILES | IC50 [2] | inhibition ([1]; at 50 µM) [%] | also measured |
| --- | --- | --- | --- |
| CN(O)/C=c1/ccc2c(n1)C(=O)C=CC=2 | 8.03 µM |  | inhibition ([1]; at 12.5 µM): 98% |
| S=C(Nc1ccc(Oc2ccccc2)cc1)NC1CCCCCC1 | > 100 µM (inactive) |  | inhibition ([1]; at 0.391 µM): 19.9% |
| O=C(Nc1cccc(N=Cc2cc(Cl)cc(Br)c2O)c1)c1ccco1 | 25.8 µM | 89.6 |  |
| Cc1nc2ccccc2c2c1C(=O)N(C)C2=O | > 100 µM (inactive) |  | inhibition ([1]; at 12.5 µM): 20.3% |
| CNc1nnc(-c2cc3cc(Cl)ccc3oc2=O)s1 | > 100 µM (inactive) |  | inhibition ([1]; at 25 µM): 12.5% |
| O=C(NC1CCCCC1)Sc1ccc(Cl)cc1 | > 100 µM (inactive) | 24.2 |  |
| CCCCCCCCCCn1c2c(c(=N)c3c1CCC3)CCC2 | 12 µM | 100 |  |
| O=C(c1ccc(Cl)cc1)c1c[nH]c(C(=O)C(Cl)(Cl)Cl)c1 | 47.4 µM | 77.6 |  |
| O=C(CCc1ccccc1)NNC(=S)NC(=O)c1ccccc1 | > 100 µM (inactive) |  | inhibition ([1]; at 12.5 µM): 22.5% |
| CSC1=NSC2=NC(=O)/C(=C\c3coc4ccccc4c3=O)C(=N)N12 | > 100 µM (inactive) | 19.2 |  |
| O=C(O)CCSc1nnc(-c2ccccc2)n1-c1ccccc1 | > 100 µM (inactive) |  | inhibition ([1]; at 1.563 µM): 15.8% |
| N=c1n(CCN2CCOCC2)c2ccccc2n1CC(=O)c1ccc(Cl)c(Cl)c1 | 35.4 µM | 61.4 |  |
| Cc1ccc(-n2c(C)cc(C(=O)COC(=O)c3ccc[nH]c3=O)c2C)cc1 | 27.7 µM | 67 |  |
| CCCc1cc(-c2n[nH]c(=S)n2C(C)c2ccccc2)cs1 (configuration not stated) | > 100 µM (inactive) |  | inhibition ([1]; at 0.391 µM): 1.3% |
| COc1ccc(S(=O)(=O)n2oc(=O)cc2-c2ccccc2)cc1OC | > 100 µM (inactive) |  | inhibition ([1]; at 1.563 µM): 9.27% |
| Cc1ccc2c(c1)c1c(n2C)-c2[nH]ncc2CC1 | 38.2 µM | 71.1 |  |
| c1ccc2c(c1)nnn1c3ccccc3nc21 | > 100 µM (inactive) |  | inhibition ([1]; at 3.125 µM): 14.6% |
| CCC1C(=O)N=C(SCC(=O)Nc2ccccc2)NC1=O (configuration not stated) | 46.5 µM | 52.5 |  |
